Assay results taken from paper PMC10058310 (Science Advances, 2023).

Experiments:
[1] = tested on: recombinant SARS2 encoding WT M^pro; assay: microbe, parasite or virus in culture; assay type: cell-based; conditions: A549-hACE2 cells; for IC50: Severe acute respiratory syndrome coronavirus 2, replication-competent SARS-CoV-2, M^pro WT, 72 hpi, read-out: IC50 (95% CI)
[2] = tested on: recombinant SARS2 encoding ∆P168 M^pro; assay: microbe, parasite or virus in culture; assay type: cell-based; conditions: Severe acute respiratory syndrome coronavirus 2; read-out: IC50 (95% CI)
SARS2 M^pro ∆P168 = SARS2 M^pro ∆P168 (Severe acute respiratory syndrome coronavirus 2, UniProt P0DTD1, DEL3431-3431); assay type: cell-based, SARS-CoV-2

Which results are given for `Cn1cnc(Cn2c(=O)[nH]/c(=N\c3cc4cn(C)nc4cc3Cl)n(Cc3cc(F)c(F)cc3F)c2=O)n1` [Ensitrelvir, ensitrelvir]?
IC50 [1]: 4.3 nM; IC50 [2]: 3.6 nM

`CC(C)(C)[C@H](NC(=O)C(F)(F)F)C(=O)N1C[C@H]2[C@@H]([C@H]1C(=O)N[C@H](C#N)C[C@@H]1CCNC1=O)C2(C)C` [Nirmatrelvir, nirmatrelvir] was tested. Which IC50 [1] did it give?
Its IC50 is 4.4 nM.

And the IC50 [2]?
Its IC50 is 7 nM.

Which results are given for `CCC(CC)COC(=O)[C@H](C)N[P@](=O)(OC[C@H]1O[C@@](C#N)(c2ccc3c(N)ncnn23)[C@H](O)[C@@H]1O)Oc1ccccc1` [Remdesivir, remdesivir]?
Fold change in antiviral EC50 ([1]; M^pro WT virus (reference)): 1.0 fold; IC50 [1]: 1200 nM; IC50 [2]: 1100 nM

How did the “effect on dose-response curve versus WT M^pro” value (SARS2 M^pro ∆P168) turn out when `CC(C)(C)NC(=O)N[C@H](C(=O)N1C[C@H]2[C@@H]([C@H]1C(=O)NC(CC1CCC1)C(=O)C(N)=O)C2(C)C)C(C)(C)C` (some centres unmarked) [boceprevir] was run?
Its value is “no detectable effect”.
